Experimental data published in ChEMBL document CHEMBL4417621, “Methods to identify tas2r modulators” (2013).
pEC50: −log10 of the molar value.

Legend:
Format in all cases: functional, cell-based
[1] = target: T1, Taste receptor type 2 member 31 (Homo sapiens, UniProt P59538); test: Agonist activity at full-length human TAS2R44 expressed in HEK293T/Galpha16-gustducin 44 cells assessed as effect on calcium flux by measuring deltaF/F0 ratio by Fluo-4 dye based FLIPR assay
T1 sequence (P59538 whole entry): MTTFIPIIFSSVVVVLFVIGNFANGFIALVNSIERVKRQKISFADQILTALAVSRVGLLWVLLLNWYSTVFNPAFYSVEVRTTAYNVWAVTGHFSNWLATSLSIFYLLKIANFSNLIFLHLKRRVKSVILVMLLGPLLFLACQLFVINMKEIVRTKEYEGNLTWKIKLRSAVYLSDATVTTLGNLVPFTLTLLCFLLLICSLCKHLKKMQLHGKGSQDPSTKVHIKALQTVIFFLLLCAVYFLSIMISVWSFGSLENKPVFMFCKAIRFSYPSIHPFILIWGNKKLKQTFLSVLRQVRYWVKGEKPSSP

[2] = target: T2, Taste receptor type 2 member 31 (Homo sapiens) (UniProt P59538); test: Activation of full-length human TAS2R44 expressed in HEK293T/Galpha16-gustducin 44 cells assessed as effect on calcium flux by measuring deltaF/F0 ratio at 12.5 mM by Fluo-4 dye based FLIPR assay (reference value: […] +/ - 0.014)
T2 sequence (whole entry): T1 sequence (P59538 whole entry)

[3] = target: T2, Taste receptor type 2 member 31 (Homo sapiens); test: Activation of full-length human TAS2R44 expressed in HEK293T/Galpha16-gustducin 44 cells assessed as effect on calcium flux by measuring deltaF/F0 ratio at 3.125 mM by Fluo-4 dye based FLIPR assay (reference value: […] +/ - 0.001)
[4] = target: T2, Taste receptor type 2 member 31 (Homo sapiens); test: Activation of full-length human TAS2R44 expressed in HEK293T/Galpha16-gustducin 44 cells assessed as effect on calcium flux by measuring deltaF/F0 ratio at 0.3906 mM by Fluo-4 dye based FLIPR assay (reference value: […] +/ - 0.002)
[5] = target: T3, Taste receptor type 2 member 1 (Homo sapiens) (UniProt Q9NYW7); test: Activation of full-length human TAS2R1 expressed in HEK293T/Galpha16-gustducin 44 cells assessed as effect on calcium flux by measuring deltaF/F0 ratio at 50 mM by Fluo-4 dye based FLIPR assay
T3 sequence (whole entry): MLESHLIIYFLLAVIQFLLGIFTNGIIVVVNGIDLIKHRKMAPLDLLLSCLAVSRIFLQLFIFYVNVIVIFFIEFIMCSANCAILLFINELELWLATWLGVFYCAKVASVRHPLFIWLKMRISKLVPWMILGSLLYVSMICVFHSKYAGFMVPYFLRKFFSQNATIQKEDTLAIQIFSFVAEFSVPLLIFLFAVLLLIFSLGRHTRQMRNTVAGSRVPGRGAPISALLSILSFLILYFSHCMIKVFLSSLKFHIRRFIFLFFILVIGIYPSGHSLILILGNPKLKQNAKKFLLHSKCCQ

[6] = target: T3, Taste receptor type 2 member 1 (Homo sapiens); test: Activation of full-length human TAS2R1 expressed in HEK293T/Galpha16-gustducin 44 cells assessed as effect on calcium flux by measuring deltaF/F0 ratio at 1.5625 mM by Fluo-4 dye based FLIPR assay
[7] = target: T3, Taste receptor type 2 member 1 (Homo sapiens); test: (§1) Activation of full-length human TAS2R1 expressed in HEK293T/Galpha16-gustducin 44 cells assessed as effect on calcium flux by measuring deltaF/F0 ratio by Fluo-4 dye based FLIPR assay
[8] = target: T4, Taste receptor type 2 member 1 (Homo sapiens, UniProt Q9NYW7); test: as §1
T4 sequence (Q9NYW7 whole entry): T3 sequence (whole entry)

[9] = target: T5, Taste receptor type 2 member 10 (Homo sapiens) (UniProt Q9NYW0); test: Activation of full-length human TAS2R10 expressed in HEK293T/Galpha16-gustducin 44 cells assessed as effect on calcium flux by measuring deltaF/F0 ratio at 50 mM by Fluo-4 dye based FLIPR assay
T5 sequence (whole entry): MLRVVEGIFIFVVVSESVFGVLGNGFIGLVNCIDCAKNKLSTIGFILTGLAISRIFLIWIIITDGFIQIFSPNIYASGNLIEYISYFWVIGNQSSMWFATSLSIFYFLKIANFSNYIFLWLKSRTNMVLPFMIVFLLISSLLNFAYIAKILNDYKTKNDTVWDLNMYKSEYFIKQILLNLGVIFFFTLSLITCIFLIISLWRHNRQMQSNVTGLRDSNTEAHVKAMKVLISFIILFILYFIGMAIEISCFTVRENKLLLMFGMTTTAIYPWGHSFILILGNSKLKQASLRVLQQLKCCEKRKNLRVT

[10] = target: T5, Taste receptor type 2 member 10 (Homo sapiens); test: Activation of full-length human TAS2R10 expressed in HEK293T/Galpha16-gustducin 44 cells assessed as effect on calcium flux by measuring deltaF/F0 ratio at 1.5625 mM by Fluo-4 dye based FLIPR assay
[11] = target: T5, Taste receptor type 2 member 10 (Homo sapiens); test: Activation of full-length human TAS2R10 expressed in HEK293T/Galpha16-gustducin 44 cells assessed as effect on calcium flux by measuring deltaF/F0 ratio at 0.3906 mM by Fluo-4 dye based FLIPR assay
[12] = target: T6, Taste receptor type 2 member 46 (Homo sapiens) (UniProt P59540); test: Activation of full-length human TAS2R46 expressed in HEK293T/Galpha16-gustducin 44 cells assessed as effect on calcium flux by measuring deltaF/F0 ratio at 50 mM by Fluo-4 dye based FLIPR assay
T6 sequence (whole entry): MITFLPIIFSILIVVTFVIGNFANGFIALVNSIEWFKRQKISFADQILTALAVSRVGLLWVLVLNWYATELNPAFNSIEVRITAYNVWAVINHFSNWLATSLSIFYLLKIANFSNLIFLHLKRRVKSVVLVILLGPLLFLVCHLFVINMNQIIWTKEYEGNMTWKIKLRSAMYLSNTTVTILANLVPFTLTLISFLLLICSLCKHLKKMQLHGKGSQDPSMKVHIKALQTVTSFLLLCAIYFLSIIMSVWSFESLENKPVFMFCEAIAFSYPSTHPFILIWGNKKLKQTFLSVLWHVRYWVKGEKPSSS

[13] = target: T6, Taste receptor type 2 member 46 (Homo sapiens); test: Activation of full-length human TAS2R46 expressed in HEK293T/Galpha16-gustducin 44 cells assessed as effect on calcium flux by measuring deltaF/F0 ratio at 25 mM by Fluo-4 dye based FLIPR assay
[14] = target: T6, Taste receptor type 2 member 46 (Homo sapiens); test: Activation of full-length human TAS2R46 expressed in HEK293T/Galpha16-gustducin 44 cells assessed as effect on calcium flux by measuring deltaF/F0 ratio at 6.25 mM by Fluo-4 dye based FLIPR assay
[15] = target: T6, Taste receptor type 2 member 46 (Homo sapiens); test: Activation of full-length human TAS2R46 expressed in HEK293T/Galpha16-gustducin 44 cells assessed as effect on calcium flux by measuring deltaF/F0 ratio at 1.5625 mM by Fluo-4 dye based FLIPR assay
[16] = target: T6, Taste receptor type 2 member 46 (Homo sapiens); test: Activation of full-length human TAS2R46 expressed in HEK293T/Galpha16-gustducin 44 cells assessed as effect on calcium flux by measuring deltaF/F0 ratio at 0.7813 mM by Fluo-4 dye based FLIPR assay
[17] = target: T6, Taste receptor type 2 member 46 (Homo sapiens); test: Activation of full-length human TAS2R46 expressed in HEK293T/Galpha16-gustducin 44 cells assessed as effect on calcium flux by measuring deltaF/F0 ratio at 0.3906 mM by Fluo-4 dye based FLIPR assay

pEC50 [1]: 1.78
Ratio [2]: 0.109
Ratio [3]: 0.043
Ratio [4]: 0.023
Ratio [5]: 0.197
Ratio [6]: 0.047
Activity [7]: Dose-dependent effect
pEC50 [8]: 1.44
Ratio [9]: 0.212
Ratio [10]: 0.047
Ratio [11]: 0.05
Ratio [12]: 0.171
Ratio [13]: 0.106
Ratio [14]: 0.057
Ratio [15]: 0.035
Ratio [16]: 0.038
Ratio [17]: 0.041
Structure (SMILES): OC[C@H]1O[C@H](O[C@]2(CCl)O[C@H](CCl)[C@@H](O)[C@@H]2O)[C@H](O)[C@@H](O)[C@H]1Cl [SUCRALOSE]
